Assay results taken from patent publication US12215109B2, “Crystal of pyrazolo[3,4-d]pyrimidine” (TAIHO PHARMACEUTICAL CO., LTD., priority 2018, dated 2025).

Assays:
Type in all cases: physicochemical
[1] = Thermal stability test (X-ray powder diffraction under heating); conditions: XRPD at 25° C., 50° C., elevated to 200° C., then lowered to 25° C.
Experimental: A thermal stability test was conducted on Crystal I and Crystal III obtained in Example and Comparative Example described above. Crystal II was not reproduced, and it was not possible to conduct a thermal stability test.
X-ray powder diffraction measurement was performed at 25° C., and the temperature was elevated to 50° C. over 30 minutes, followed by performing X-ray powder diffraction measurement. The temperature was further elevated to 200° C. at 10° C./10 min, followed by performing X-ray powder diffraction measurement, then the temperature was lowered to 25° C. over 30 minutes, followed by performing X-ray powder diffraction measurement.

[2] = Solid stability test (storage stability; XRPD, HPLC related substances, appearance); conditions: for Related substances: HPLC
Experimental: The storage stability of Crystal I obtained in Example above was examined under the following conditions. • Storage conditions: 40° C./[…] (open system and closed system), 60° C. (closed system), light shielding • Measurement point: 1 month • Storage amount: about 50 mg • Storage container: Brown glass bottle
X-ray powder diffraction measurement of the sample after storage was performed by the above-described method. For a change in mass of related substances (amount of detected substances other than Compound (I)), about 1 mg of the sample was weighed, and dissolved in about 5 mL of a water/acetonitrile mixed liquid (1:1), and 5 μL of the liquid was accurately measured and taken, and analyzed by HPLC in accordance with the following method. • Column: InertSustain C18 HP, 4.6×150 mm, 3 μm • Column temperature: 40° C. • Column flow rate: 0.8 mL/min • Mobile phase: A: 10 mM phosphate buffer (pH 6.8)/acetonitrile (17:3) and B: acetonitrile/methanol (17:3) • Detection UV: 220 nm • Gradient: […]

[3] = Dynamic moisture absorption/desorption test; conditions: 25° C., humidity 5% RH to 95% RH and back to 5% RH
Experimental: In the test, VTI-SA+(TA Instruments) was used. About 10 mg of crystal I was weighed, and put into a pan. The temperature was elevated at a rate of 1 degree per minute to 60° C. while observing the weight variation per 5 minutes of 0.0100% or less. When the weight varied, this temperature was maintained for a maximum of 5 hours, followed by starting the next step. Thereafter, the temperature was cooled to 25° C., and the humidity was increased from 5% RH to 95% RH, and then decreased to 5% RH. Here, the humidity was increased in increments of 5% RH while observing the weight variation per 5 minutes of 0.00100% or less. When the weight varied, this humidity was maintained for a maximum of 2 hours, followed by starting the next step.

[4] = 40° C./75% RH (closed system), 1 month
[5] = 40° C./75% RH (open system), 1 month
[6] = 60° C. (closed system), 1 month
[7] = Light shielding (1,200,000 lx · hr)

| Structure (SMILES) | change in crystal form under heating [1] | Appearance [2, 4] | Related substances [2, 4] | Appearance [2, 5] | Related substances [2, 5] | Appearance [2, 6] | Related substances [2, 6] | Appearance [2, 7] | Related substances [2, 7] | change in X-ray powder diffraction pattern after storage ([2]; storage 1 month, 40° C./75° RH (open and closed system), 60° C. (closed system), light shielding) | hygroscopicity (moisture absorption/desorption isothermal line) [3] |
| --- | --- | --- | --- | --- | --- | --- | --- | --- | --- | --- | --- |
| C=CC(=O)N1CCC[C@@H](n2nc(C(=O)Nc3ccc(CC(=O)N(C)C)c(C)c3C)c3c(N)ncnc32)C1 [Crystal I, (R)-1-(1-acryloylpiperidin-3-yl)-4-amino-N-(4-(2-(dimethylamino)-2-oxoethyl)-2,3-dimethylphenyl)-1H-pyrazolo[3,4-d]pyrimidine-3-carboxamide] | no change in crystal form | No change | <0.1% | No change | <0.1% | No change | <0.1% | No change | <0.1% | no change in X-ray powder diffraction pattern | non-hygroscopic |
| C=CC(=O)N1CCC[C@@H](n2nc(C(=O)Nc3ccc(CC(=O)N(C)C)c(C)c3C)c3c(N)ncnc32)C1 [Crystal III, (R)-1-(1-acryloylpiperidin-3-yl)-4-amino-N-(4-(2-(dimethylamino)-2-oxoethyl)-2,3-dimethylphenyl)-1H-pyrazolo[3,4-d]pyrimidine-3-carboxamide] | changed by heating | – | – | – | – | – | – | – | – | – | – |
